Measurements as given in patent publication US7118895B2, “Process for producing aglycon by using diglycosidase and flavor-improved food containing the aglycon and converting agent to be used in the process” (Amano Enzyme Inc., priority 2000, dated 2006).

Experiments:
[1] = test system: Diglycosidase derived from P. multicolor; test: Reactivity toward various isoflavone glycosides (HPLC); type: biochemical, Penicillium multicolor; parameters: glucoside / aglycon: unit not given here; conditions: 55 °C, pH 4.0
Protocol: Diglycosidase was diluted with an acetate buffer of pH 4.0 to prepare a 0.75 AU/mL enzyme solution. As references, a similar operation was conducted using β-glucosidase (manufactured by Fluka) derived from Aspergillus niger, β-glucosidase (manufactured by Sigma) derived from almond, β-xylosidase derived from pectinase G (manufactured by Amano Enzyme Inc.). Each of purified products of isoflavone glycosides (glycitin, acetylglycitin, malonylglycitin, daidzin, acetyldaidzin, malonyldaidzin, genistin, acetylgenistin, malonylgenistin, all manufactured by Nacalai Tesque, Inc.) was dissolved in methanol to prepare each 2 mM substrate solution. The reaction was carried out by mixing 10 μL of a substrate solution, 200 μL of 20 mM acetate buffer (pH 4.0), and 40 μL of each purified enzyme solution at a total liquid volume of 250 μL. The reaction was carried out at 55° C. and isolation of an aglycon isoflavone from an isoflavone glycoside in the reaction mixture was detected by HLPC at 0, 1, 3, and 6 hours of the reaction.
To the reaction mixture was added 700 μL of ethanol, followed by stirring and ultrasonication. After centrifugation at 15,000 rpm and 4° C. for 10 minutes, the supernatant was filtered through a filter and then the filtrate was applied to HPLC.
The isoflavone glycoside and aglycon isoflavone contained in the filtrate was separated and detected by a high performance liquid chromatography (HPLC, Shimadzu CLASS LC-10 system) using TOSOH TSK gel ODS-80TM column (manufactured by Tosoh Corporation). […] The absorbance at 260 nm was detected by a UV detector (Shimadzu, SPD-10AV). Using purified products (manufactured by Nacalai Tesque, Inc.) of the above isoflavone glycosides and aglycon isoflavones, the isoflavone glycoside and aglycon isoflavone were quantitatively determined according to a calibration curve method. By the way, unless otherwise stated, the measuring conditions of HPLC herein mean those described in the example.

[2] = test system: Crude diglycosidase; test: Examination of temperature in the conversion into isoflavone aglycons by diglycosidase using soybean materials; type: biochemical, Penicillium multicolor IAM7153; parameters: Decomposition efficiency of glycitin family in roasted soy flour / Decomposition efficiency of daidzin family in roasted soy flour / Decomposition efficiency of genistin family in soymilk / Decomposition efficiency of daidzin family in soymilk / Decomposition efficiency of glycitin family in defatted soybean / Decomposition efficiency of daidzin family in defatted soybean: concentration or dose not given beside the values
In short: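 Temperature series (30-80° C.) of crude diglycosidase, diluted to 1.88 AU/mL in 20 mM acetate pH 4.0, acting on roasted soy flour, soymilk, defatted soybean or soy protein concentrate. Samples quenched with ethanol after 0-6 h, centrifuged, filtered and analyzed by HPLC for glycosides versus aglycons.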

[3] = 30° C., heat treatment of enzyme no, reaction time 0 h
[4] = 30° C., heat treatment of enzyme no, reaction time 1 h
[5] = 30° C., heat treatment of enzyme no, reaction time 3 h
[6] = 30° C., heat treatment of enzyme no, reaction time 6 h
[7] = 30° C., heat treatment of enzyme yes, reaction time 6 h
[8] = 30 °C, heat treatment of enzyme: no, 0 h
[9] = 30 °C, heat treatment of enzyme: no, 1 h
[10] = 30 °C, heat treatment of enzyme: no, 3 h
[11] = 30 °C, heat treatment of enzyme: no, 6 h
[12] = 30 °C, heat treatment of enzyme: yes, 6 h
[13] = 45° C., heat treatment of enzyme no, reaction time 0 h
[14] = 45° C., heat treatment of enzyme no, reaction time 1 h
[15] = 45° C., heat treatment of enzyme no, reaction time 3 h
[16] = 45° C., heat treatment of enzyme no, reaction time 6 h
[17] = 45° C., heat treatment of enzyme yes, reaction time 6 h
[18] = 45 °C, heat treatment of enzyme: no, 0 h
[19] = 45 °C, heat treatment of enzyme: no, 1 h
[20] = 45 °C, heat treatment of enzyme: no, 3 h
[21] = 45 °C, heat treatment of enzyme: no, 6 h
[22] = 45 °C, heat treatment of enzyme: yes, 6 h
[23] = 55° C., heat treatment of enzyme no, reaction time 0 h
[24] = 55° C., heat treatment of enzyme no, reaction time 1 h
[25] = 55° C., heat treatment of enzyme no, reaction time 3 h
[26] = 55° C., heat treatment of enzyme no, reaction time 6 h
[27] = 55° C., heat treatment of enzyme yes, reaction time 6 h
[28] = 55 °C, heat treatment of enzyme: no, 0 h
[29] = 55 °C, heat treatment of enzyme: no, 1 h
[30] = 55 °C, heat treatment of enzyme: no, 3 h
[31] = 55 °C, heat treatment of enzyme: no, 6 h
[32] = 55 °C, heat treatment of enzyme: yes, 6 h
[33] = 65° C., heat treatment of enzyme no, reaction time 0 h
[34] = 65° C., heat treatment of enzyme no, reaction time 1 h
[35] = 65° C., heat treatment of enzyme no, reaction time 3 h
[36] = 65° C., heat treatment of enzyme no, reaction time 6 h
[37] = 65° C., heat treatment of enzyme yes, reaction time 6 h
[38] = 65 °C, heat treatment of enzyme: no, 0 h
[39] = 65 °C, heat treatment of enzyme: no, 1 h
[40] = 65 °C, heat treatment of enzyme: no, 3 h
[41] = 65 °C, heat treatment of enzyme: no, 6 h
[42] = 65 °C, heat treatment of enzyme: yes, 6 h
[43] = 80° C., heat treatment of enzyme no, reaction time 0 h
[44] = 80° C., heat treatment of enzyme no, reaction time 1 h
[45] = 80° C., heat treatment of enzyme no, reaction time 3 h
[46] = 80° C., heat treatment of enzyme no, reaction time 6 h
[47] = 80° C., heat treatment of enzyme yes, reaction time 6 h
[48] = 80 °C, heat treatment of enzyme: no, 0 h
[49] = 80 °C, heat treatment of enzyme: no, 1 h
[50] = 80 °C, heat treatment of enzyme: no, 3 h
[51] = 80 °C, heat treatment of enzyme: no, 6 h
[52] = 80 °C, heat treatment of enzyme: yes, 6 h

aglycon ([1]; Reaction time 0 h): 0 | glucoside ([1]; Reaction time 0 h): 100 | aglycon ([1]; Reaction time 1 h): 99.8 | glucoside ([1]; Reaction time 1 h): 0.2 | aglycon ([1]; Reaction time 3 h): 99.9 | glucoside ([1]; Reaction time 3 h): 0.1 | aglycon ([1]; Reaction time 6 h): 99.8 | glucoside ([1]; Reaction time 6 h): 0.2 | Decomposition efficiency of genistin family in concentrated soybean protein [2, 3]: 43.1% | Decomposition efficiency of genistin family in defatted soybean [2, 3]: 1.7% | Decomposition efficiency of genistin family in concentrated soybean protein [2, 4]: 43.2% | Decomposition efficiency of genistin family in defatted soybean [2, 4]: 1.3% | Decomposition efficiency of genistin family in concentrated soybean protein [2, 5]: 43.0% | Decomposition efficiency of genistin family in defatted soybean [2, 5]: 0.7% | Decomposition efficiency of genistin family in concentrated soybean protein [2, 6]: 42.5% | Decomposition efficiency of genistin family in defatted soybean [2, 6]: 0.1% | Decomposition efficiency of genistin family in concentrated soybean protein [2, 7]: 41.5% | Decomposition efficiency of genistin family in defatted soybean [2, 7]: 0.4% | Decomposition efficiency of genistin family in roasted soy flour [2, 8]: 45.5% | Decomposition efficiency of genistin family in soymilk [2, 8]: 0.9% | Decomposition efficiency of genistin family in roasted soy flour [2, 9]: 45.3% | Decomposition efficiency of genistin family in soymilk [2, 9]: not detected | Decomposition efficiency of genistin family in roasted soy flour [2, 10]: 43.8% | Decomposition efficiency of genistin family in soymilk [2, 10]: not detected | Decomposition efficiency of genistin family in roasted soy flour [2, 11]: 40.6% | Decomposition efficiency of genistin family in soymilk [2, 11]: not detected | Decomposition efficiency of genistin family in roasted soy flour [2, 12]: 43.8% | Decomposition efficiency of genistin family in soymilk [2, 12]: 0.9% | Decomposition efficiency of genistin family in concentrated soybean protein [2, 13]: 43.0% | Decomposition efficiency of genistin family in defatted soybean [2, 13]: 1.5% | Decomposition efficiency of genistin family in concentrated soybean protein [2, 14]: 42.8% | Decomposition efficiency of genistin family in defatted soybean [2, 14]: 0.8% | Decomposition efficiency of genistin family in concentrated soybean protein [2, 15]: 41.0% | Decomposition efficiency of genistin family in defatted soybean [2, 15]: 0.3% | Decomposition efficiency of genistin family in concentrated soybean protein [2, 16]: 39.6% | Decomposition efficiency of genistin family in defatted soybean [2, 16]: 0.2% | Decomposition efficiency of genistin family in concentrated soybean protein [2, 17]: 38.9% | Decomposition efficiency of genistin family in defatted soybean [2, 17]: 0.2% | Decomposition efficiency of genistin family in roasted soy flour [2, 18]: 45.3% | Decomposition efficiency of genistin family in soymilk [2, 18]: 0.9% | Decomposition efficiency of genistin family in roasted soy flour [2, 19]: 43.6% | Decomposition efficiency of genistin family in soymilk [2, 19]: not detected | Decomposition efficiency of genistin family in roasted soy flour [2, 20]: 38.5% | Decomposition efficiency of genistin family in soymilk [2, 20]: not detected | Decomposition efficiency of genistin family in roasted soy flour [2, 21]: 31.7% | Decomposition efficiency of genistin family in soymilk [2, 21]: not detected | Decomposition efficiency of genistin family in roasted soy flour [2, 22]: 39.5% | Decomposition efficiency of genistin family in soymilk [2, 22]: 0.6% | Decomposition efficiency of genistin family in concentrated soybean protein [2, 23]: 42.9% | Decomposition efficiency of genistin family in defatted soybean [2, 23]: 1.7% | Decomposition efficiency of genistin family in concentrated soybean protein [2, 24]: 43.1% | Decomposition efficiency of genistin family in defatted soybean [2, 24]: 0.7% | Decomposition efficiency of genistin family in concentrated soybean protein [2, 25]: 41.1% | Decomposition efficiency of genistin family in defatted soybean [2, 25]: 0.2% | Decomposition efficiency of genistin family in concentrated soybean protein [2, 26]: 39.0% | Decomposition efficiency of genistin family in defatted soybean [2, 26]: 0.1% | Decomposition efficiency of genistin family in concentrated soybean protein [2, 27]: 41.1% | Decomposition efficiency of genistin family in defatted soybean [2, 27]: 0.4% | Decomposition efficiency of genistin family in roasted soy flour [2, 28]: 45.7% | Decomposition efficiency of genistin family in soymilk [2, 28]: 0.6% | Decomposition efficiency of genistin family in roasted soy flour [2, 29]: 42.5% | Decomposition efficiency of genistin family in soymilk [2, 29]: not detected | Decomposition efficiency of genistin family in roasted soy flour [2, 30]: 34.0% | Decomposition efficiency of genistin family in soymilk [2, 30]: not detected | Decomposition efficiency of genistin family in roasted soy flour [2, 31]: 27.3% | Decomposition efficiency of genistin family in soymilk [2, 31]: not detected | Decomposition efficiency of genistin family in roasted soy flour [2, 32]: 39.9% | Decomposition efficiency of genistin family in soymilk [2, 32]: 0.7% | Decomposition efficiency of genistin family in concentrated soybean protein [2, 33]: 43.1% | Decomposition efficiency of genistin family in defatted soybean [2, 33]: 1.5% | Decomposition efficiency of genistin family in concentrated soybean protein [2, 34]: 45.2% | Decomposition efficiency of genistin family in defatted soybean [2, 34]: 1.2% | Decomposition efficiency of genistin family in concentrated soybean protein [2, 35]: 44.0% | Decomposition efficiency of genistin family in defatted soybean [2, 35]: 1.2% | Decomposition efficiency of genistin family in concentrated soybean protein [2, 36]: 43.4% | Decomposition efficiency of genistin family in defatted soybean [2, 36]: 1.1% | Decomposition efficiency of genistin family in concentrated soybean protein [2, 37]: 42.3% | Decomposition efficiency of genistin family in defatted soybean [2, 37]: 1.3% | Decomposition efficiency of genistin family in roasted soy flour [2, 38]: 45.5% | Decomposition efficiency of genistin family in soymilk [2, 38]: 0.9% | Decomposition efficiency of genistin family in roasted soy flour [2, 39]: 43.6% | Decomposition efficiency of genistin family in soymilk [2, 39]: not detected | Decomposition efficiency of genistin family in roasted soy flour [2, 40]: 40.5% | Decomposition efficiency of genistin family in soymilk [2, 40]: not detected | Decomposition efficiency of genistin family in roasted soy flour [2, 41]: 38.8% | Decomposition efficiency of genistin family in soymilk [2, 41]: not detected | Decomposition efficiency of genistin family in roasted soy flour [2, 42]: 44.3% | Decomposition efficiency of genistin family in soymilk [2, 42]: 1.1% | Decomposition efficiency of genistin family in concentrated soybean protein [2, 43]: 43.0% | Decomposition efficiency of genistin family in defatted soybean [2, 43]: 1.5% | Decomposition efficiency of genistin family in concentrated soybean protein [2, 44]: 44.0% | Decomposition efficiency of genistin family in defatted soybean [2, 44]: 1.8% | Decomposition efficiency of genistin family in concentrated soybean protein [2, 45]: 43.6% | Decomposition efficiency of genistin family in defatted soybean [2, 45]: 2.1% | Decomposition efficiency of genistin family in concentrated soybean protein [2, 46]: 43.4% | Decomposition efficiency of genistin family in defatted soybean [2, 46]: 2.5% | Decomposition efficiency of genistin family in concentrated soybean protein [2, 47]: 41.4% | Decomposition efficiency of genistin family in defatted soybean [2, 47]: 2.4% | Decomposition efficiency of genistin family in roasted soy flour [2, 48]: 45.3% | Decomposition efficiency of genistin family in soymilk [2, 48]: 0.9% | Decomposition efficiency of genistin family in roasted soy flour [2, 49]: 48.5% | Decomposition efficiency of genistin family in soymilk [2, 49]: 0.9% | Decomposition efficiency of genistin family in roasted soy flour [2, 50]: 48.2% | Decomposition efficiency of genistin family in soymilk [2, 50]: 1.0% | Decomposition efficiency of genistin family in roasted soy flour [2, 51]: 47.7% | Decomposition efficiency of genistin family in soymilk [2, 51]: 2.3% | Decomposition efficiency of genistin family in roasted soy flour [2, 52]: 43.4% | Decomposition efficiency of genistin family in soymilk [2, 52]: 2.5%
SMILES: CC(=O)OC[C@H]1O[C@@H](Oc2cc(O)c3c(=O)c(-c4ccc(O)cc4)coc3c2)[C@H](O)[C@@H](O)[C@@H]1O [acetylgenistin, 6″-O-acetylgenistin]
